Data on 5 compounds can be found in article PMC5349880, “P-glycoprotein-mediated chemoresistance is reversed by carbonic anhydrase XII inhibitors” (Oncotarget, 2016).

For assay [1], the target named is human CA IX. Details: method as in PMID 21851094, PMID 19827837, PMID 21314129. The note with it: recombinant CA, errors ± 5%, three determinations; cited from earlier work.
In assay [2] the target is human CA XII. Further details: method as in PMID 21851094, PMID 19827837, PMID 21314129. The settings on record: recombinant CA, errors ± 5%, three determinations; cited from earlier work.
Assay [3] deals with human CA I. Further details: method as in PMID 21851094, PMID 19827837, PMID 21314129. The note with it: recombinant CA, errors ± 5%, three determinations; cited from earlier work.
In assay [4] the target is human CA II. Details: method as in PMID 21851094, PMID 19827837, PMID 21314129. The note with it: recombinant CA, errors ± 5%, three determinations; cited from earlier work.
Assay [5] has as its system human CA XII. Kind of assay: CA inhibition, stopped-flow CO2 hydration. In kind it is biochemical. The note with it: ratio of Kis. The procedure: Saturated CO2 solutions in water at 20°C were used as substrate, while the recombinant CA protein was prepared in Hepes buffer (10 mM, pH 7.5) with added NaClO4 (0.1 M) to maintain a constant the ionic strength. […] The inhibition constants were obtained by nonlinear least-squares methods using PRISM 3. The curve fitting algorithm allowed us to obtain the IC50 values, from which Ki values were calculated by using the Cheng-Prusoff equation.

Consider `CCC(=O)OC1O[C@H](COS(N)(=O)=O)[C@@H](OC(=O)CC)[C@H](OC(=O)CC)[C@H]1OC(=O)CC` (stereo partly drawn) [Compound 3], for which the Ki in assay [1] was 77 nM.
In the case of `NS(=O)(=O)c1ccc(CNS(=O)(=O)[C@@H]2O[C@H](CO)[C@@H](O)[C@H](O)[C@H]2O)cc1` [Compound 5], the results for the Ki in assay [2], in assay [3] and in assay [4] were 8.3 nM, 102 nM and 9.1 nM, respectively.
Regarding `NS(=O)(=O)c1ccc(CNS(=O)(=O)[C@@H]2O[C@H](CO)[C@H](O)[C@H](O)[C@H]2O)cc1` [Compound 6], the Ki in assay [2] is 8.7 nM; in assay [3], 87 nM; in assay [4], 7.8 nM.
With `NS(=O)(=O)c1ccc(CNS(=O)(=O)[C@@H]2O[C@H](CO)[C@@H](O[C@H]3O[C@H](CO)[C@H](O)[C@H](O)[C@H]3O)[C@H](O)[C@H]2O)cc1` [Compound 7], in assay [5], the “CAXII Isozyme Selectivity CA I/XII” value stood at 12.0. Moreover, the “CAXII Isozyme Selectivity CA IX/XII” value in assay [5] turned out to be 11.9. The “CAXII Isozyme Selectivity CAII/ XII” value in assay [5] amounted to 0.6. Besides, the Ki in assay [2] is 8.9 nM; in assay [3], 107 nM; in assay [4] it was 5 nM; in assay [1], 106 nM.
For the compound `NS(=O)(=O)c1ccc(CNS(=O)(=O)[C@@H]2O[C@H](CO)[C@@H](O[C@H]3O[C@H](CO)[C@@H](O)[C@H](O)[C@H]3O)[C@H](O)[C@H]2O)cc1` [Compound 8], in assay [5], the “CAXII Isozyme Selectivity CA I/XII” value came out at 12.3. Moreover, the “CAXII Isozyme Selectivity CA IX/XII” value in assay [5] was determined as 12.0. The “CAXII Isozyme Selectivity CAII/ XII” value in assay [5] is listed as 0.6. Also, the Ki was 8.2 nM in assay [2], 101 nM in assay [3], 4.8 nM in assay [4] and 98 nM in assay [1].

Usually Ki stands for a dissociation constant, usually derived from enzyme kinetics or from competition with a known ligand.
